Results on 1 molecule are retold here after patent publication US10238623B2, “C14-hydroxyl esterified amino acid derivative of triptolide, and preparation method and use thereof” (HANGZHOU WEBEN PHARMACEUTICALS INC, priority 2015, dated 2019).

One assay concerns KG-1a. The experiment in a line: MTT growth inhibition, KG-1a cells, 72 h. The assay is classed as cell-based. Particulars: Homo sapiens. The method, then:
(§1) 5000 well-grown leukemia cells were taken and seeded into wells of a 96-well cell culture plate. The medium was 1640 cell medium containing 10% fetal bovine serum. 14-D-Valine-TPL with different concentrations was added, and after being uniformly mixed, the plate was placed in a carbon dioxide (5% CO2) cell incubator, and incubated at 37° C. for 72 hours. The concentration of live cells was then determined using the MTT assay. In this experiment, the cell viability in the control group (without the compound treatment) was set to be 100%, and the cell viability (%) after the action of the compound and the half maximal growth inhibitory concentration of leukemia cells at 72 hours (IC50 value at 72 hours) were calculated.

The next assay concerns THP-1. The experiment in a line: MTT growth inhibition, THP-1 cells, 72 h. In kind it is cell-based. The settings on record: Homo sapiens, THP-1, MTT. On the procedure:
as §1

The subject of assay [1] is human leukemia cells (Jurkat, CEM, Molt-4, Sup-B15). The assay is described as follows: Therapeutic window over 4 types of human leukemia cells (MTT). In kind it is cell-based. The settings on record: for 4 different types of human leukemia cells. On the procedure:
(§2) 5000 well-grown leukemia cells or normal human blood cells were taken and seeded into wells of a 96-well cell culture plate. The medium was 1640 cell medium containing 10% fetal bovine serum. 14-D-Valine-TPL with different concentrations was added, and after being uniformly mixed, the plate was placed in a carbon dioxide (5% CO2) cell incubator, and incubated at 37° C. for 72 hours. The concentration of live cells was then determined using the MTT assay. In this experiment, the cell viability in the control group (without the compound treatment) was set to be 100%, and the cell viability (%) after the action of the compound the half maximal growth inhibitory concentration of leukemia cells at 72 hours (IC50 value at 72 hours) and the therapeutic window index were calculated. Therapeutic window index=IC50 value of normal blood cells/IC50 value of leukemia cells. […] A larger therapeutic window indicates a better selectivity of the compound for tumor cells.

A further assay deals with c-myc. The assay is described as follows: Immunoblot of c-myc level in K562 cells, 48 h. Particulars: 80 nM. The assay is classed as cell-based, human. On the procedure: Well-grown leukemia cells were taken and seeded into wells of a 6-well cell culture plate, with a density of 1×10^6/ml. The medium was 1640 cell medium containing 10% fetal bovine serum. 14-D-Valine-TPL with different concentrations was added, and after being uniformly mixed, the plate was placed in a carbon dioxide (5% CO2) cell incubator, and incubated at 37° C. for 48 hours. Cellular proteins were then extracted, and the immunoblot technique was used to detect the expression level of c-myc.

Assay [2] concerns RNA polymerase II (Pol II). The experiment in a line: Immunoblot of Pol II level in THP-1 cells, 48 h. In kind it is cell-based, human. The settings on record: 160 nM. The method, then:
Well-grown leukemia cells were taken and seeded into wells of a 6-well cell culture plate, with a density of 1×10^6/ml. The medium was 1640 cell medium containing 10% fetal bovine serum. 14-D-Valine-TPL with different concentrations was added, and after being uniformly mixed, the plate was placed in a carbon dioxide (5% CO2) cell incubator, and incubated at 37° C. for 48 hours. Cellular proteins were then extracted, and the immunoblot technique was used to detect the expression levels of XPB and Pol II.

The next assay concerns Jurkat. The assay is described as follows: MTT growth inhibition, Jurkat cells, 72 h. The assay is classed as cell-based, human. On the procedure:
as §2, §1
as §1, with “well-grown lymphocytes” for “well-grown leukemia cells”

Another assay concerns HL-60. The experiment in a line: MTT growth inhibition, HL-60 cells, 72 h. In kind it is cell-based. The settings on record: Homo sapiens, HL-60, MTT. The method, then: as §1
For the next assay, the system named is KG-1. The assay is described as follows: MTT growth inhibition, KG-1 cells, 72 h. In kind it is cell-based. The settings on record: Homo sapiens, KG-1, MTT. The method, then:
as §1

The test system of the next assay is CEM. The assay is described as follows: MTT growth inhibition, CEM cells, 72 h. In kind it is cell-based, human. The method, then: as §2, §1
as §1, with “well-grown lymphocytes” for “well-grown leukemia cells”

On to `CC(C)[C@@H](N)C(=O)O[C@@H]1[C@@]2(C(C)C)O[C@H]2[C@@H]2O[C@]23[C@]12O[C@H]2C[C@H]1C2=C(CC[C@@]13C)C(=O)OC2` [14-D-Valine-TPL, 14-Dextro-Valine-Triptolide], for which the IC50 came out at 31 nM in the assay on KG-1a; 16 nM with THP-1; 36.3 nM in the assay with Jurkat (Homo sapiens, Jurkat, 72 h); 65.8 nM in the assay with HL-60; 49 nM with KG-1; 25.5 nM in the assay with CEM (Homo sapiens, CCRF-CEM, 72 h). In assay [1], the therapeutic window indices is recorded as 5.54-18.58. The “level of c-myc (immunoblot)” value with c-myc is listed as “significantly inhibited”. In [2], the “level of Pol II (immunoblot)” value is “significantly inhibited”. The results for the Therapeutic window in the assay with Jurkat (IC50 of normal blood cells/IC50 of Jurkat) and in the assay with CEM (IC50 of normal blood cells/IC50 of CEM) were 5.54 and 7.89, respectively.
